Where a name gives a salt, the structure may show the parent alone. Peptide text beside a SMILES is read from it.
What follows are molecules tested on Bovine Serum Albumin (BSA) (assay: In vitro protein carbamylation assay (14C-potassium cyanate, BSA)). Settings: 10 mM nucleophile, 75 μM BSA, 25 μM 14C-potassium cyanate, 37° C., 72 hours, n=3.
Type: biochemical
Procedure: 200 μL of a 0.5% BSA solution, 200 μL of test solution and 100 μL of a 5 μCi/mL ^14C-Potassium Cyanate solution was mixed in an Eppendorf tube (corresponding to a final concentration of 75 μM BSA, 25 μM ^14C-Potassium Cyanate, and 10 mM nucleophile). Samples run in triplicates (n=3). The Eppendorf tubes were incubated at 37° C. for 72 hours (if not otherwise stated).
After incubation a volume of 100 μL of each sample was transferred to a new Eppendorf tube containing 100 μL of a 10% trichloroacetic acid (TCA) and kept at 4° C. overnight (for precipitation of BSA). Subsequently, the precipitated BSA was separated from the buffer by centrifugation (10000 rpm, 30 seconds). The supernatant was removed and the BSA pellet was resuspended in 200 μL of a 10% solution of cold TCA (4° C.). The pellet was recovered by centrifugation (10000 rpm, 30 seconds) and supernatant was discarded. The BSA pellet was resuspended in 100 μL purified water (MilliQ) and transferred to a scintillation vial. The Eppendorf tube (previously containing the BSA pellet) was rinsed with an additional 100 μL purified water which al was transferred to the relevant scintillation vial.

In order of falling “Degree of carbamylation (% relative to HBSS control)” value:
1. CC1=NCC[C@@H](C(=O)O)N1 [Ectoine, reference compound]  97.9%
2. Cl.N=C(N)NCCC[C@H](N)C(=O)O [Arg*HCl]  66.1%
3. N[C@@H](Cc1c[nH]cn1)C(=O)O [Histidine]  61.1%
4. CC(C)C[C@H](NC(=O)[C@@H](O)[C@H](N)Cc1ccccc1)C(=O)O [Bestatin, reference compound]  53.4%
5. Arg  52.4%
6. Pro-Ser  41.9%
7. Ile-Pro  41.4%
8. Ala-Gln  34.8%
9. Gly-Ser  33.1%
10. Tyr-Pro  32.8%
11. COC(=O)[C@H](Cc1ccccc1)NC(=O)[C@@H](N)CC(=O)O [Aspartame] (HELM PEPTIDE1{D.F.[CO[*:1]]}$$$$V2.0)  30.4%
12. NCCNCC(=O)O [N-β-aminoethyl-Gly]  29.7%
13. Val-Tyr  28.9%
14. Lys-Pro  28.6%
15. Gly-Gly  26.6%
16. Ser-Pro  26.4%
17. Tyr-Ala  26.1%
18. Tetraglycine  24.9%
19. Gly-His  22.6%
20. Val-Pro  22.1%
21. Ala-Glu  20.4%
22. CC(=O)N[C@@H](CS)C(=O)O [Acetylcysteine, reference compound]  14.3%

Same assay, conditions: 10 mM nucleophile, 37° C., 72 hours; dissolved in HBSS:DMSO 90:10; neutralized by equimolar NaOH before use

In order of falling “Degree of carbamylation (% relative to HBSS control)” value:
1. CC(N)C12CC3CC(CC(C3)C1)C2.Cl (stereo not drawn) [Rimantadine*HCl, reference compound]  78.5%
2. CN(C)C(=N)NC(=N)N.Cl [Metformin*HCl, reference compound]  71.4%

Same assay, conditions: 10 mM nucleophile, 37° C., 72 hours; neutralized by equimolar NaOH before use

In order of falling “Degree of carbamylation (% relative to HBSS control)” value:
1. Sitagliptine phosphate [reference compound]  48.6%
2. N=C(N)c1ccc(OCCCCCOc2ccc(C(=N)N)cc2)cc1 [Pentamidine diisethionate, reference compound]  43.1%
3. NNCCc1ccccc1 [Phenelzine sulfate, reference compound]  9.8%

Same assay, conditions: text statement referring to Example 3

With `CC1=NCC[C@@H](C(=O)O)N1` [Ectoine, reference compound] the “degree of carbamylation (%) relative to HBSS control, in words” value was “high degree of carbamylation”.

The molecules below were run on reconstructed human skin (Epiderm Full Thickness) (assay: In vitro protein carbamylation assay using reconstructed human skin (Protein Carbamylation Sandwich ELISA)). Settings: 0.5 M urea:isocyanate 99:1 + 200 μL 2% nucleophile solution, apical, six days.
Type: cell-based
Procedure: Epiderm Full Thickness (Epiderm FT, MatTek Corp., USA) tissues were transferred to B6 trays containing EpiDermTM Full Thickness Maintenance Medium (MatTek Corp., USA) immediately upon arrival and incubated for 24 hours at 37° C. and 5% CO2. […] At day 6, the treatment solutions and the maintenance medium were removed from the tissues, and pre-warmed phosphate buffered saline (DPBS, Sigma-Aldrich) was added and removed twice before the tissues were submitted for ELISA and histological analysis. The 7 different conditions were tested on four different tissues where one tissue from each treatment was submitted for ELISA and the remaining three tissues were submitted for histological analysis. Overview of Treatment Solutions Added to the Apical Compartment • 1. […] The concentration used was selected to resemble the approximate concentration of urea in urine (Liu et. al. 2012). Experimental procedure for protein extraction was modified from Ross-Hansen et al., 2014 and Palosuo et al., 1998. The cell covered […] filters (Mattek) were cut from the plastic insertion ring, and the cell layer gently peeled of the membrane with a scalpel. […] Samples were analysed undiluted in a Protein Carbamylation Sandwich ELISA (Cell Biolabs Inc cat no STA-877).

With `N[C@@H](CC(=O)N1CCn2c(nnc2C(F)(F)F)C1)Cc1cc(F)c(F)cc1F` [Sitagliptin] the “inhibition of protein carbamylation (ELISA, FIG. 2)” value was “did not show complete inhibition”.

Each molecule was assayed on reconstructed human skin (EpiDermFT) (assay: Histological analysis (H&E) of reconstructed human skin samples treated with urea:isocyanate). Settings: 0.5 M urea:isocyanate 99:1 + 200 μL 2% nucleophile solution, six days; vs control treated with only urea:isocyanate.
Type: cell-based
Procedure: Epiderm Full Thickness (Epiderm FT, MatTek Corp., USA) tissues were transferred to B6 trays containing EpiDerm™ Full Thickness Maintenance Medium (MatTek Corp., USA) immediately upon arrival and incubated for 24 hours at 37° C. and 5% CO2. […] At day 6, the treatment solutions and the maintenance medium were removed from the tissues, and pre-warmed phosphate buffered saline (DPBS, Sigma-Aldrich) was added and removed twice before the tissues were submitted for ELISA and histological analysis. The 7 different conditions were tested on four different tissues where one tissue from each treatment was submitted for ELISA and the remaining three tissues were submitted for histological analysis. Overview of Treatment Solutions Added to the Apical Compartment • 1. […] EpiDermFT membranes were app. 1 cm in diameter and were fixed in formalin for 5 days. Membranes were cut into halves using a scissors and placed into histogel matrix aiming at having the cut surface as the tissue sectioning surface. The samples were dehydrated in alcohol and xylene and embedded in paraffin using a standard paraffin embedding procedure. Sections were cut at 4 μm for Hematoxylin and Eosin (H&E) staining and immunohistochemistry (IHC). Images were acquired using a 20× objective with a Zeiss AxioScan. Representative areas were selected for presentation. […]

In the case of `N[C@@H](CC(=O)N1CCn2c(nnc2C(F)(F)F)C1)Cc1cc(F)c(F)cc1F` [Sitagliptin], the “attachment of epidermis / reduction of skin damage (H&E, FIG. 3)” value is reported as “least effect”.

Reference: US20230414699A1, “TREATMENT OF DERMATOLOGICAL CONDITIONS” (MC2 Therapeutics Ltd, priority 2020, published 2023)
